{
  "source": "paper PMC6658140",
  "about": "(ACS catalysis, 2019)",
  "key": {"[1]": {"molecular_target": "TropB (Talaromyces stipitatus, UniProt B8M9J8)", "sequence (B8M9J8 whole entry)": "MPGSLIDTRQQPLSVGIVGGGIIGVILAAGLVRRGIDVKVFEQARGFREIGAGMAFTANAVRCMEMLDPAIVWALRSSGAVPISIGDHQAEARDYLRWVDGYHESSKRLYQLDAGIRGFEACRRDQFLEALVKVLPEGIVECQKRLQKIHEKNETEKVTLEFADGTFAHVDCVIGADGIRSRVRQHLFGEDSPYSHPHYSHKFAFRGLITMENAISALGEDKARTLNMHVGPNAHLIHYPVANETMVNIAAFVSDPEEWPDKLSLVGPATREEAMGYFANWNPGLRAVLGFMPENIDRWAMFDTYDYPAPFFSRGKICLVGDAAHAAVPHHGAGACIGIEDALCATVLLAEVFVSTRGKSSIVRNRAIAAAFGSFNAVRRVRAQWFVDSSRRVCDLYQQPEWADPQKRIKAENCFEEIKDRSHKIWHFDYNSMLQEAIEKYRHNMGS", "test": "change in absorbance at […] nm", "assay_type": "binding"}, "[2]": {"molecular_target": "TropB (Talaromyces stipitatus, UniProt B8M9J8, R206Q)", "sequence (B8M9J8 whole entry R206Q)": "as the sequence (B8M9J8 whole entry) above, with R206Q counted along it", "test": "change in absorbance at […] nm", "assay_type": "binding"}},
  "data": [
    {"smiles": "Cc1cc(O)c(C)c(O)c1C=O", "note": "[compound 1, 3-methylorcinaldehyde]", "values": [
      {"measurement": "Kd", "setting": "[1]", "value": "21 ± 2", "unit": "µM"},
      {"measurement": "Kd", "setting": "[2]", "value": "32 ± 4", "unit": "µM"}
    ]}
  ]
}
